Laboratory results published in patent publication US20250123290A1, “BIOTIN-FREE PROXIMITY LABELING” (HOWARD HUGHES MEDICAL INSTITUTE, priority 2023, published 2025).

Tests used:
[1] = tested on: APEX2 in the mouse brain; assay: CLA-tyramide (CLA-phenol) mediated proximity labeling in mouse brain; assay type: in vivo; settings: mouse brain samples; FIGS. 4A-4B
Method: CLA-tyramide (CLA-phenol) mediated proximity labeling was conducted in mouse brain. […] The mouse brain samples were fixed, permeabilized, and incubated with HaloTag protein. The samples were then stained with antibodies against HaloTag and V5 (on APEX2) to label CLA-tagged proteins and APEX2, respectively.

[2] = tested on: cultured primary neurons expressing LAMP1-APEX2-V5; assay: CLA-tyramide proximity labeling of neuronal lysosomal proteins, imaging with HaloTag protein and antibody staining; assay type: cell-based, rat; settings: 150 μM CLA-tyramide, FIG. 2C
Description: The exemplary system studied in this Example makes use of a unique substrate for proximity labeling, which is a CLA-phenol compound, which in some cases is referred to herein as a CLA-tyramide compound. As will be appreciated, the chemical structure of tyramide includes a phenol moiety. To establish efficacy, the exemplary system was used to detect proteins that are enriched in neuronal lysosomes with lysosome-targeted APEX2 (Lamp1-APEX2).
With reference to FIG. 2A, cultured primary neurons expressing LAMP1-APEX2-V5 were incubated with 0 μM, 50 μM, 150 μM, or 500 μM CLA-tyramide, respectively. Neurons were fixed, permeabilized, and incubated with HaloTag protein. Cells were then stained with antibodies against HaloTag, V5, and MAP5 to label CLA-tagged proteins, LAMP1-APEX2-V5 (lysosome APEX2), and neurons, respectively.
Line scans show the relative intensity of CLA-tagged proteins and LAMP1-APEX2-V5.

[3] = tested on: cilia and mitochondria; assay: CLA-tyramide labeling in cilia and mitochondria, detection with EGFP-HaloTag protein; assay type: cell-based; settings: 250 μM CLA-tyramide; FIGS. 3B and 3D
Method: CLA-tyramide labeling was conducted in cilia and mitochondria. FIGS. 3A and 3B show CLA-tyramide labeling in cilia. FIGS. 3C and 3D show CLA-tyramide labeling in mitochondria. FIGS. 3B and 3D are from experiments in which 250 μM CLA-tyramide was applied to cells. Cells were fixed, permeabilized, and incubated with EGFP-HaloTag protein.

In the case of `O=C(NCCOCCOCCCCCCCl)NCCc1ccc(O)cc1` [CLA-tyramide], the “co-localization of CLA-tagged proteins and APEX2 (V5)” value [1] is reported as “good co-localization of most structures”, the “colocalization of CLA-tagged proteins and LAMP1-APEX2-V5 (line scans of relative intensity)” value [2] is reported as “Good colocalization” and the “labeling in different subcellular compartments (cilia, mitochondria)” value [3] is reported as “can be applied to different subcellular compartments”.
